Experimental data as given in patent US8017612B2, “Piperazine compound and use thereof as a HCV polymerase inhibitor” (priority 2006, dated 2011).

Key:
[1] = molecular target: T1, HCV polymerase (NS5B) type 1b (Hepatitis C virus genotype 1b, UniProt P26663); assay: Assay of enzyme (HCV polymerase) inhibitory activity, type 1b enzyme; assay type: biochemical, HCV BK strain (type 1b)
T1 construct: a region encoding NS5B (J Virol 1991 March, 65(3), 1105-13, 544 amino acids after deletion of 47 amino acids on the C-terminal); 6xHis (C); made in house; host or cells: Escherichia coli
In short: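 NS5B from HCV BK strain (type 1b), C-terminal 47 aa deleted, C-terminal His6-tagged, E. coli-expressed, 0.5 μg/ml, with ~450 nt substrate RNA carrying the 3′ UTR (polyU, 3′X) at 5 μg/ml. Incubation 60 min at 25 °C with 50 μM ATP/GTP/CTP, 2 μM UTP plus [3H]UTP, pH 7.5 Tris.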

[2] = molecular target: T2, HCV polymerase (NS5B) type 1a (Hepatitis C virus genotype 1a, UniProt P26664); assay: Assay of enzyme (HCV polymerase) inhibitory activity, type 1a enzyme; assay type: biochemical, HCV type 1a (cloned from the blood of patients)
T2 construct: made in house; host or cells: Escherichia coli (by the 'similar method' of the 1b enzyme)
In short: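 Patient-derived type 1a NS5B (C-terminal 47-aa deletion, His-tagged, E. coli-expressed) at 1.5 μg/ml was reacted with 5 μg/ml 3′UTR-containing substrate RNA, 50 μM ATP/GTP/CTP, 2 μM UTP plus [3H]UTP, pH 7.5, 25° C for 60 min. TCA-precipitated RNA radioactivity was counted; IC50 from ± compound.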

[3] = HCV polymerase inhibitory activity IC50, 1b, type 1b enzyme
[4] = HCV polymerase inhibitory activity IC50, 1a, type 1a enzyme
[5] = HCV polymerase inhibitory activity (IC50), 1b, type 1b enzyme 0.5 μg/ml, 25° C., 60 min
[6] = HCV polymerase inhibitory activity (IC50), 1a, type 1a enzyme 1.5 μg/ml, 25° C., 60 min

| Structure (SMILES) | IC50 [1, 3] | IC50 [2, 4] | IC50 [1, 5] | IC50 [2, 6] |
| --- | --- | --- | --- | --- |
| CCC(F)(F)c1ccc(CNC(=O)[C@H]2CN(c3cnc4cnccc4n3)CCN2S(=O)(=O)c2ccc(-c3ccccc3)cc2)cc1 [Example 727, (R)-1-(biphenyl-4-sulfonyl)-4-pyrido[3,4-b]pyrazin-2-yl-piperazine-2-carboxylic acid 4-(1,1-difluoro-propyl)-benzylamide] | < 100 nM | < 100 nM |  |  |
| COc1ccc2nc(N3CCN(S(=O)(=O)c4ccc(OC(F)(F)F)cc4)[C@@H](C(=O)NCc4ccc(OC(F)(F)F)cc4)C3)sc2n1 [Example 1050, (R)-4-(5-methoxy-thiazolo[5,4-b]pyridin-2-yl)-1-(4-trifluoromethoxy-benzenesulfonyl)-piperazine-2-carboxylic acid 4-trifluoromethoxy-benzylamide] | 100 to 1000 nM | 100 to 1000 nM |  |  |
| O=C(NCc1ccc(OC(F)F)cc1)[C@H]1CN(c2nc3nc(Cl)ncc3s2)CCN1S(=O)(=O)c1ccc(OC(F)F)cc1 [Example 955, (R)-4-(5-chloro-thiazolo[4,5-d]pyrimidin-2-yl)-1-(4-difluoromethoxy-benzenesulfonyl)-piperazine-2-carboxylic acid 4-difluoromethoxy-benzylamide] | < 100 nM | < 100 nM |  |  |
| CN(CC(=O)O)c1ccc(S(=O)(=O)N2CCN(c3cnc4cnccc4n3)C[C@@H]2C(=O)NCc2ccc(OC(F)(F)F)cc2)cc1 [Example 765, (methyl-{4-[(R)-4-pyrido[3,4-b]pyrazin-2-yl-2-(4-trifluoromethoxy-benzylcarbamoyl)-piperazine-1-sulfonyl]-phenyl}-amino)-acetic acid] | < 100 nM | < 100 nM |  |  |
| CCC(F)(F)c1ccc(CNC(=O)[C@H]2CN(c3cnc4cncnc4n3)CCN2S(=O)(=O)c2ccc(I)cc2)cc1 [Example 708, (R)-1-(4-iodo-benzenesulfonyl)-4-pteridin-7-yl-piperazine-2-carboxylic acid 4-(1,1-difluoro-propyl)-benzylamide] | < 100 nM | < 100 nM |  |  |
| C#Cc1ncc2sc(N3CCN(S(=O)(=O)c4ccc(OC(F)(F)F)cc4)[C@@H](C(=O)NCc4ccc(OC(F)(F)F)cc4)C3)nc2n1 [Example 995, (R)-4-(5-ethynyl-thiazolo[4,5-d]pyrimidin-2-yl)-1-(4-trifluoromethoxy-benzenesulfonyl)-piperazine-2-carboxylic acid 4-trifluoromethoxy-benzylamide] | < 100 nM | < 100 nM |  |  |
| CCCc1ccc(CNC(=O)[C@H]2CN(c3cnc4cncc(C(=O)O)c4n3)CCN2S(=O)(=O)c2ccc(OC(F)(F)F)cc2)cc1 [Example 824, 2-[(R)-3-(4-propyl-benzylcarbamoyl)-4-(4-trifluoromethoxy-benzenesulfonyl)-piperazin-1-yl]-pyrido[3,4-b]pyrazine-8-carboxylic acid] | < 100 nM | < 100 nM |  |  |
| COc1cccc(CCNC(=O)[C@H]2CN(C(C)=O)CCN2S(=O)(=O)c2ccc(OC(F)(F)F)cc2)c1 [Example 672, (R)-4-acetyl-1-(4-trifluoromethoxy-benzenesulfonyl)-piperazine-2-carboxylic acid [2-(3-methoxy-phenyl)-ethyl]-amide] | > 1000 nM | > 1000 nM |  |  |
| CCCc1ccc(CNC(=O)[C@H]2CN(c3cc(C)c(C(N)=O)nn3)CCN2S(=O)(=O)c2ccc(OC(F)(F)F)cc2)cc1 [Example 494, 4-methyl-6-[(R)-3-(4-propyl-benzylcarbamoyl)-4-(4-trifluoromethoxy-benzenesulfonyl)-piperazin-1-yl]-pyridazine-3-carboxylic acid amide] |  |  | < 100 nM | < 100 nM |
| O=C(NCc1ccc(OC(F)F)cc1)[C@H]1CN(c2nn3c(C(F)(F)F)cc(=O)nc3s2)CCN1S(=O)(=O)c1ccc(C(F)(F)F)cc1 [Example 1068, (R)-4-(7-oxo-5-trifluoromethyl-7H-[1,3,4]thiadiazolo[3,2-a]pyrimidin-2-yl)-1-(4-trifluoromethyl-benzenesulfonyl)-piperazine-2-carboxylic acid 4-difluoromethoxy-benzylamide] | < 100 nM | < 100 nM |  |  |
| CC(=O)N1CCN(S(=O)(=O)c2ccc(C(C)C)cc2)C(C(=O)NCc2ccc(S(N)(=O)=O)cc2)C1 (stereo not shown) [Example 38, 4-acetyl-1-(4-isopropyl-benzenesulfonyl)-piperazine-2-carboxylic acid 4-sulfamoyl-benzylamide] |  |  | > 1000 nM | > 1000 nM |
| COC(=O)c1ncc(N2CCN(S(=O)(=O)c3ccc(C(F)(F)F)cc3)[C@@H](C(=O)NCc3ccc(C(C)C)cc3)C2)nc1N [Example 423, (R)-6′-amino-3-(4-isopropyl-benzylcarbamoyl)-4-(4-trifluoromethyl-benzenesulfonyl)-3,4,5,6-tetrahydro-2H-[1,2′]bipyrazinyl-5′-carboxylic acid methyl ester] |  |  | < 100 nM | < 100 nM |
| CCCc1nc(C)c(CNC(=O)[C@H]2CN(c3nc4cn[nH]c(=O)c4s3)CCN2S(=O)(=O)c2ccc(OC(F)(F)F)cc2)s1 [Example 909, (R)-4-(7-oxo-6,7-dihydro-thiazolo[4,5-d]pyridazin-2-yl)-1-(4-trifluoromethoxy-benzenesulfonyl)-piperazine-2-carboxylic acid (4-methyl-2-propyl-thiazol-5-ylmethyl)-amide] | < 100 nM | 100 to 1000 nM |  |  |
| CCC(=O)N1CCN(S(=O)(=O)c2ccc(I)cc2)C(C(=O)NCc2ccc(N(C)C)cc2)C1 (stereo not shown) [Example 130, 1-(4-iodo-benzenesulfonyl)-4-propionyl-piperazine-2-carboxylic acid 4-dimethylamino-benzylamide] |  |  | > 1000 nM | > 1000 nM |
| CC(C)c1ccc(CNC(=O)[C@H]2CN(C(=O)Nc3ccncc3)CCN2S(=O)(=O)c2ccc(C(F)(F)F)cc2)cc1 [Example 3, (R)-4-(4-trifluoromethyl-benzenesulfonyl)-piperazine-1,3-dicarboxylic acid 3-(4-isopropyl-benzylamide) 1-pyridin-4-ylamide] |  |  | < 100 nM | < 100 nM |
| CCC(F)(F)c1ccc(CNC(=O)[C@H]2CN(C(=O)N3CC(C(=O)O)C3)CCN2S(=O)(=O)c2ccc(OC(F)(F)F)cc2)cc1 [Example 705, 1-[(R)-3-[4-(1,1-difluoro-propyl)-benzylcarbamoyl]-4-(4-trifluoromethoxy-benzenesulfonyl)-piperazine-1-carbonyl]-azetidine-3-carboxylic acid] | > 1000 nM | > 1000 nM |  |  |
| O=C(NCc1ccc(OC(F)(F)F)cc1)[C@H]1CN(c2nc3nc(CCO)ncc3s2)CCN1S(=O)(=O)c1ccc(OC(F)(F)F)cc1 [Example 1098, (R)-4-[5-(2-hydroxy-ethyl)-thiazolo[4,5-d]pyrimidin-2-yl]-1-(4-trifluoromethoxy-benzenesulfonyl)-piperazine-2-carboxylic acid 4-trifluoromethoxy-benzylamide] | < 100 nM | < 100 nM |  |  |
| CCCc1ccc(S(=O)(=O)N2CCN(c3nc(C)c(C(=O)O)s3)C[C@@H]2C(=O)NCc2ccc(C(C)C)cc2)s1 [Example 380, 2-[(R)-3-(4-isopropyl-benzylcarbamoyl)-4-(5-propyl-thiophene-2-sulfonyl)-piperazin-1-yl]-4-methyl-thiazole-5-carboxylic acid] |  |  | < 100 nM | < 100 nM |
| CC(C)c1ccc(CNC(=O)[C@H]2CN(C(=O)Nc3nnco3)CCN2S(=O)(=O)c2ccc(C(F)(F)F)cc2)cc1 [Example 348, (R)-4-(4-trifluoromethyl-benzenesulfonyl)-piperazine-1,3-dicarboxylic acid 3-(4-isopropyl-benzylamide) 1-[1,3,4]oxadiazol-2-ylamide] |  |  | 100 to 1000 nM | 100 to 1000 nM |
| CCC(F)(F)c1ccc(CNC(=O)[C@H]2CN(c3nc4nsnc4nc3O)CCN2S(=O)(=O)c2ccc(OC(F)(F)F)cc2)cc1 [Example 647, (R)-4-(6-hydroxy-[1,2,5]thiadiazolo[3,4-b]pyrazin-5-yl)-1-(4-trifluoromethoxy-benzenesulfonyl)-piperazine-2-carboxylic acid 4-(1,1-difluoro-propyl)-benzylamide] |  |  | 100 to 1000 nM | > 1000 nM |
| O=C(NCc1ccc(OC(F)(F)F)cc1)[C@H]1CN(c2cnc3cncnc3n2)CCN1S(=O)(=O)c1ccc(Cl)s1 [Example 792, (R)-1-(5-chloro-thiophene-2-sulfonyl)-4-pteridin-7-yl-piperazine-2-carboxylic acid 4-trifluoromethoxy-benzylamide] | < 100 nM | < 100 nM |  |  |
| CCCc1ccc(CNC(=O)[C@H]2CN(c3nc(C)c(C(=O)O)s3)CCN2S(=O)(=O)c2ccc(OC(F)(F)F)cc2)cc1 [Example 378, 4-methyl-2-[(R)-3-(4-propyl-benzylcarbamoyl)-4-(4-trifluoromethoxy-benzenesulfonyl)-piperazin-1-yl]-thiazole-5-carboxylic acid] |  |  | < 100 nM | < 100 nM |
| O=C(O)c1cnc(N2CCN(S(=O)(=O)c3ccc(C(F)(F)F)cc3)[C@@H](C(=O)NCc3ccc(OC(F)F)c(F)c3)C2)cn1 [Example 1122] | < 100 nM | < 100 nM |  |  |
